± gives the expanded uncertainty stated by the source.
Assay: excess molar enthalpy (molar enthalpy of mixing); xn = mol fraction of the nth substance listed
Details: 101 kPa, Liquid, Calvet calorimetry

[Ca] [calcium] + [Ag]
Details | excess molar enthalpy [kcal/mol]
1131 K, x1 = 0.7564 | -3.38 ± 0.478
1131 K, x1 = 0.8188 | -2.59 ± 0.478
1131 K, x1 = 0.8703 | -1.83 ± 0.478
1131 K, x1 = 0.8808 | -1.66 ± 0.478
1131 K, x1 = 0.9156 | -1.19 ± 0.478
1131 K, x1 = 0.9224 | -1.1 ± 0.478
1131 K, x1 = 0.9626 | -0.537 ± 0.478
1131 K, x1 = 0.9647 | -0.496 ± 0.478
1254 K, x1 = 0.0642 | -1.32 ± 0.478
1254 K, x1 = 0.0984 | -1.7 ± 0.478
1254 K, x1 = 0.1103 | -1.83 ± 0.478
1254 K, x1 = 0.1123 | -2.28 ± 0.478
1254 K, x1 = 0.1203 | -2.04 ± 0.478
1254 K, x1 = 0.1288 | -2.6 ± 0.478
1254 K, x1 = 0.1327 | -2.32 ± 0.478
1254 K, x1 = 0.1487 | -2.66 ± 0.478
1254 K, x1 = 0.1699 | -3.08 ± 0.478
1254 K, x1 = 0.1893 | -3.43 ± 0.478
1254 K, x1 = 0.1897 | -3.31 ± 0.478
1254 K, x1 = 0.2073 | -3.25 ± 0.478
1254 K, x1 = 0.2145 | -3.87 ± 0.478
1254 K, x1 = 0.2393 | -3.77 ± 0.478
1254 K, x1 = 0.2405 | -4.25 ± 0.478
1254 K, x1 = 0.249 | -4.69 ± 0.478
1254 K, x1 = 0.2673 | -4.17 ± 0.478
1254 K, x1 = 0.2711 | -4.66 ± 0.478
1254 K, x1 = 0.2999 | -4.55 ± 0.478
1254 K, x1 = 0.3115 | -5.08 ± 0.478
1254 K, x1 = 0.3416 | -4.95 ± 0.478
1254 K, x1 = 0.3685 | -5.53 ± 0.478
1254 K, x1 = 0.3962 | -5.28 ± 0.478
1254 K, x1 = 0.4438 | -5.82 ± 0.478
1254 K, x1 = 0.4634 | -5.88 ± 0.478
1254 K, x1 = 0.4708 | -5.44 ± 0.478
1254 K, x1 = 0.5175 | -5.79 ± 0.478
1254 K, x1 = 0.5477 | -5.3 ± 0.478
1254 K, x1 = 0.5562 | -5.62 ± 0.478
1254 K, x1 = 0.6306 | -4.79 ± 0.478
1254 K, x1 = 0.6313 | -5 ± 0.478
1254 K, x1 = 0.6768 | -4.7 ± 0.478
1254 K, x1 = 0.7157 | -4.28 ± 0.478
1254 K, x1 = 0.7353 | -3.76 ± 0.478
1254 K, x1 = 0.8259 | -2.59 ± 0.478
1254 K, x1 = 0.9396 | -0.962 ± 0.478

— the NIST ThermoML archive (doi:10.1016/j.jct.2014.05.021)
